Melting point data for 2 molecules are collected here from patent publication US20080096859A1, “Compositions and Methods for Treating Ophthalmic Diseases” (priority 2004, published 2008).

Structures can show the parent of a compound that is named as a salt.

One may read the melting point as the temperature of the solid-liquid transition. Regarding `c1ccc(CNC[C@@H]2CCN(CCc3c[nH]c4ccc(Cn5cncn5)cc34)C2)cc1` (as salt: oxalate), the melting point was 154 to 156 °C.

Take `c1ccc(CCNC[C@@H]2CCN(CCc3c[nH]c4ccc(-n5cnnc5)cc34)C2)cc1` (as salt: oxalate) (hydrate or solvate): the melting point was in the range of 189 to 190 °C.
